Test results as given in ChEMBL document CHEMBL1133741, “New anilinophthalazines as potent and orally well absorbed inhibitors of the VEGF receptor tyrosine kinases useful as antagonists of tumor-driven angiogenesis” (J Med Chem, 2000).

How the values were obtained:
[1] = molecular target: Vascular endothelial growth factor receptor 1 (Homo sapiens, UniProt P17948); test: Inhibitory activity against Flt-kinase
[2] = molecular target: T1, Vascular endothelial growth factor receptor 2 (Homo sapiens, UniProt P35968); test: Inhibitory activity against kinase domain containing receptor (KDR/VEGFR2)
T1 sequence (P35968 whole entry, the tested form may be a part): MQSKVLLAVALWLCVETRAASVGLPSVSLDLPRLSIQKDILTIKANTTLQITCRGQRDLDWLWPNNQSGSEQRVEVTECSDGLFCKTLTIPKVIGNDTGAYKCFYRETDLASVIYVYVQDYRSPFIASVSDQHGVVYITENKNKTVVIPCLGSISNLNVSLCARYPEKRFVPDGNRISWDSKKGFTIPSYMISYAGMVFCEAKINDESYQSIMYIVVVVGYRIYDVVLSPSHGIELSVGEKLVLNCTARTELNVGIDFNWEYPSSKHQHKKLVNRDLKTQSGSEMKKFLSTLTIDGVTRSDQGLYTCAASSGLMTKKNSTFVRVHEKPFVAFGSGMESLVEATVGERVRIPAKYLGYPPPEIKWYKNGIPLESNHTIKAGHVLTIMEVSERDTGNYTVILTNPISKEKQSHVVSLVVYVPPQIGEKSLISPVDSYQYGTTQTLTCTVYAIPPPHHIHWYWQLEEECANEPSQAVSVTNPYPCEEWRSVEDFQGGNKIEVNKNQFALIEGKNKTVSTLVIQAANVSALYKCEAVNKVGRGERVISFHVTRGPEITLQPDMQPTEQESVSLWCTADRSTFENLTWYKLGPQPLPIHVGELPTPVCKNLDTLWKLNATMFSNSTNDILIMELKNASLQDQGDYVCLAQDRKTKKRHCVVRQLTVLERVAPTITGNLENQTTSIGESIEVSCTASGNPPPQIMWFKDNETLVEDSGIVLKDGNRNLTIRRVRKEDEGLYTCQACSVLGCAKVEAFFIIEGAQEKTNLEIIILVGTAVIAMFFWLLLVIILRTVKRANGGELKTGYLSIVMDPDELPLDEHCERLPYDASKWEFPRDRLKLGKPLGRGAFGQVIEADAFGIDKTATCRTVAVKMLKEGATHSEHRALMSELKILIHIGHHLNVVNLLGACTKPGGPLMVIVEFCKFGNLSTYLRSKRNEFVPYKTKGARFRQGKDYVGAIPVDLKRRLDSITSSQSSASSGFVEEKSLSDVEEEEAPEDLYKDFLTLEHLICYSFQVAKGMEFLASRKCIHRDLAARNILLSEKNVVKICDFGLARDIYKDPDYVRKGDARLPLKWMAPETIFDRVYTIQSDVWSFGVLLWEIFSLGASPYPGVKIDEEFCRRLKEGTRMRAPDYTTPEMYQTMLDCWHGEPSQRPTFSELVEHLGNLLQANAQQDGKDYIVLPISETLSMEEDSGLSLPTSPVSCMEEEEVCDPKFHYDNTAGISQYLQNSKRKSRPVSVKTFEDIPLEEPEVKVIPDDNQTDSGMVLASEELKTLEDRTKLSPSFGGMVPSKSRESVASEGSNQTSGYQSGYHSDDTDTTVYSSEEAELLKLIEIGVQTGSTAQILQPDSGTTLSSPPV

[3] = molecular target: T1, Vascular endothelial growth factor receptor 2; settings: CHO
[4] = molecular target: Platelet-derived growth factor receptor beta (Homo sapiens, UniProt P09619); test: Inhibition of PDGF- beta receptor kinase
Platelet-derived growth factor receptor beta, sequence (P09619 whole entry): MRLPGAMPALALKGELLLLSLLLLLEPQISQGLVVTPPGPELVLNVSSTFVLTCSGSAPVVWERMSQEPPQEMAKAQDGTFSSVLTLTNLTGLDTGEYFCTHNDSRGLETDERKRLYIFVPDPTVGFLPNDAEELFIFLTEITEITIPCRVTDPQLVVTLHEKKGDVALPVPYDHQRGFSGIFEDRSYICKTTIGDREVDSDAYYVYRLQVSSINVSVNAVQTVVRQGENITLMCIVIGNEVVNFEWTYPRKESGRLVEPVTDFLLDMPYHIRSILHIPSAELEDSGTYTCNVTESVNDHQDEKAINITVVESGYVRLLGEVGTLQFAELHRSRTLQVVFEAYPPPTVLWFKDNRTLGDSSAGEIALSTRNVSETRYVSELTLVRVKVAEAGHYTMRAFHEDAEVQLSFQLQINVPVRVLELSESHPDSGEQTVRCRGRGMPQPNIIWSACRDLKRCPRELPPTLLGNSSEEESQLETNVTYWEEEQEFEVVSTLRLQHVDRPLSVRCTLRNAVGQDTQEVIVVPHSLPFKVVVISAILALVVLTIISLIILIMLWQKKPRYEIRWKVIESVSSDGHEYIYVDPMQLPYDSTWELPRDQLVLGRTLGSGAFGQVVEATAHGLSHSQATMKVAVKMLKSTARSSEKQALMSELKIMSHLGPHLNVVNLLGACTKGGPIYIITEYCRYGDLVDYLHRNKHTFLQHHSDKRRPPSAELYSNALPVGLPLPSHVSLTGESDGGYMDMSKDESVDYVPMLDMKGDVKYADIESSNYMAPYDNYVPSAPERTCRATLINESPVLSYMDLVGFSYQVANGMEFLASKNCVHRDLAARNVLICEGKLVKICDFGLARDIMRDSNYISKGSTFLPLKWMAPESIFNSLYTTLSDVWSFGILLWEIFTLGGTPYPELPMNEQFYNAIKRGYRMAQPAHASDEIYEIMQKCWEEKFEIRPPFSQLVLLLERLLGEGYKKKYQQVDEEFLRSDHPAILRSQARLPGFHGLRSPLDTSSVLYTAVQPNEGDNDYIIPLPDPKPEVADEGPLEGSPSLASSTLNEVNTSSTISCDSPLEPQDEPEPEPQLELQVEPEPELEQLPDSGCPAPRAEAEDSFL

[5] = molecular target: Mast/stem cell growth factor receptor Kit (Homo sapiens, UniProt P10721); test: Inhibition of Proto-oncogene tyrosine-kinase c-Kit
Mast/stem cell growth factor receptor Kit, sequence (P10721 whole entry): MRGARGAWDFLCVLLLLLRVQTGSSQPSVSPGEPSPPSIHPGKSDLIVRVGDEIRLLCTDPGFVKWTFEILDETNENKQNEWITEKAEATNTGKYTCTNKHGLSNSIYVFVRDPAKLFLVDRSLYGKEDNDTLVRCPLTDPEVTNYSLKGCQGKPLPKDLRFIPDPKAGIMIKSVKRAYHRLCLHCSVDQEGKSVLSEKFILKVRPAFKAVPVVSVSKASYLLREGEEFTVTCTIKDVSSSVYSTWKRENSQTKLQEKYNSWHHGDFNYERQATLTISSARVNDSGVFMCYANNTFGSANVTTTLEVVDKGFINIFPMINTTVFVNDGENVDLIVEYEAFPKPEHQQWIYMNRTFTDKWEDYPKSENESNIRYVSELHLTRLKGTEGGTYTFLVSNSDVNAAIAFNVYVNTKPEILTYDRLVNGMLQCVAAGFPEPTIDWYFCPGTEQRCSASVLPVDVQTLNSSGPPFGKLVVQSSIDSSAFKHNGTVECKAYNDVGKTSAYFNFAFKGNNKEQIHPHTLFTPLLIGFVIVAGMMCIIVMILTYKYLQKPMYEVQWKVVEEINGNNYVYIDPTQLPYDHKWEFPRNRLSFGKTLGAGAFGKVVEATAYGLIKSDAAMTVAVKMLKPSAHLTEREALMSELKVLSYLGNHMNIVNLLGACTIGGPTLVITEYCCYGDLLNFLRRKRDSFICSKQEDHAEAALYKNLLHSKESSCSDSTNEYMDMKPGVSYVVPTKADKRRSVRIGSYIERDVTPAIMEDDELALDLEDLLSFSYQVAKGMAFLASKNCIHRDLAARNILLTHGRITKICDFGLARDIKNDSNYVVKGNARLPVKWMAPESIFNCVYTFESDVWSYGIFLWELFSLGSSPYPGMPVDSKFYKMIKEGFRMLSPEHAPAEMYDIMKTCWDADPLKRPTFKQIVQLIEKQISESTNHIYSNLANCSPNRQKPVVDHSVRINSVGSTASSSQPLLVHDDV

[6] = (§1) The maximum concentration observed (Cmax) in the blood sample at indicated time point (tmax) at a dose 50 mg/Kg administered orally in mice.; format: ADME, organism-based; design: dose 50 mg/Kg, route oral; settings: mouse, in vivo, po
[7] = The maximum time reported (tmax) at an oral dose of 50 mg/Kg in mice; format: ADME, organism-based; settings: mouse, in vivo
Mus musculus = test: as §1; format: ADME, organism-based; design: dose 50 mg/Kg, route oral; settings: in vivo, po

Vascular endothelial growth factor receptor 1, sequence (P17948 whole entry, the tested form may be a part): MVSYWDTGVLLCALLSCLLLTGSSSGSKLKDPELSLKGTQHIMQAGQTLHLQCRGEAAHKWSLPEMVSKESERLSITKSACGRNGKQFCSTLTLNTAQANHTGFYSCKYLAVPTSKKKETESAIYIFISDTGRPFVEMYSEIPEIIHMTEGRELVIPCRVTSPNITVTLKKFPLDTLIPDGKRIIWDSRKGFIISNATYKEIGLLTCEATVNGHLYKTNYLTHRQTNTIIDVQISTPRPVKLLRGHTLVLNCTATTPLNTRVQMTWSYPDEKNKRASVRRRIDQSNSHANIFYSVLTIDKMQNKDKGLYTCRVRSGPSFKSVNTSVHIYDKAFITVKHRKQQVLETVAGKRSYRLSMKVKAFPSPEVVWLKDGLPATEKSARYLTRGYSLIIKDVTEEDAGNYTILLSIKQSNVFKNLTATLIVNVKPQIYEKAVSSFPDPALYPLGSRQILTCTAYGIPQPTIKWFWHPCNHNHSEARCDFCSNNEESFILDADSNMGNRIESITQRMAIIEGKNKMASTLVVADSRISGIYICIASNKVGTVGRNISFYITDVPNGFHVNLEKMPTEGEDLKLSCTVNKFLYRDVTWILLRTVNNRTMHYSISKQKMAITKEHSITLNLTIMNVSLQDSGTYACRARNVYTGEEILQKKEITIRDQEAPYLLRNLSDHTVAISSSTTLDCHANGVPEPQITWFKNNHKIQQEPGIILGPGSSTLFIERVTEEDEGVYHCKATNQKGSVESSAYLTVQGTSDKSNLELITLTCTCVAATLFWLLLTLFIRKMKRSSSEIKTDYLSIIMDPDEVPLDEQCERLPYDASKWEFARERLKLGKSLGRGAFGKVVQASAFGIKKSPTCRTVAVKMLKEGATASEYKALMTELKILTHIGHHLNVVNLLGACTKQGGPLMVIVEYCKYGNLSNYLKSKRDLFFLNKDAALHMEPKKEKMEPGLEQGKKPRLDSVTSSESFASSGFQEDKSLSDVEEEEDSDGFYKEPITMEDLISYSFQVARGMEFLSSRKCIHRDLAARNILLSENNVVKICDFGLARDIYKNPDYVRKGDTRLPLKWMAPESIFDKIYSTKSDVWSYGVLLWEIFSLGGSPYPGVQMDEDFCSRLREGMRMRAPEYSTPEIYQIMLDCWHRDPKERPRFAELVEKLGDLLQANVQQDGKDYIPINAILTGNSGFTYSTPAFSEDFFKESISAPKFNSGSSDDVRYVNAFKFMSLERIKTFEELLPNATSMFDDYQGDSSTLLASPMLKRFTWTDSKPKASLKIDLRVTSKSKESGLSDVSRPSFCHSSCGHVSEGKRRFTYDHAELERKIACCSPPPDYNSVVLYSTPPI

| SMILES | IC50 [1] | IC50 [2] | ED50 [3] | IC50 [4] | IC50 [5] | Cmax [6] | Tmax [7] | Cmax (Mus musculus) |
| --- | --- | --- | --- | --- | --- | --- | --- | --- |
| Fc1cc(Nc2nnc(Cc3ccncc3)c3ccccc23)cc(C(F)(F)F)c1 | 350 nM | 200 nM | 40 nM | > 10000 nM | > 10000 nM | – | – | – |
| Clc1ccc(Nc2nnc(NCc3ccncc3)c3ccccc23)cc1 | 2600 nM | 4700 nM | – | – | – | – | – | – |
| Cc1cccc(Nc2nnc(Cc3ccncc3)c3ccccc23)c1 | 40 nM | 80 nM | 8 nM | 1000 nM | 2500 nM | 13 µM | 30 min | – |
| Clc1ccc(Sc2nnc(Cc3ccncc3)c3ccccc23)cc1 | 70 nM | 1300 nM | – | – | – | – | – | – |
| Clc1ccc(Nc2nnc(Cc3ccccn3)c3ccccc23)cc1 | > 10000 nM | > 10000 nM | – | – | – | – | – | – |
| Cc1c(Cc2ccncc2)nnc(Nc2ccc(Cl)cc2)c1C | 260 nM | – | – | – | – | – | – | – |
| Cc1cc(C)c(/C=C2\C(=O)Nc3ccccc32)[nH]1 [SEMAXANIB] | – | – | 930 nM | – | – | – | 30 min | 0.3 µM |
| FC(F)(F)c1cc(Br)cc(Nc2nnc(Cc3ccncc3)c3ccccc23)c1 | 600 nM | 380 nM | 39 nM | > 10000 nM | > 10000 nM | 6 µM | 120 min | – |
| Clc1ccc(Nc2nnc(Cc3ccncc3)c3ncccc23)cc1 | 240 nM | – | – | – | – | – | – | – |
| c1ccc(Nc2nnc(Cc3ccncc3)c3ccccc23)cc1 | – | – | – | 2800 nM | > 10000 nM | – | – | – |
| Clc1ccc(Nc2nnc(Cc3ccncc3)c3ccccc23)cc1Cl | 70 nM | 30 nM | 27 nM | 600 nM | 700 nM | 9.8 µM | 30 min | – |
| Cc1cc(Cc2nnc(Nc3ccc(Cl)cc3)c3ccccc23)ccn1 | – | 240 nM | – | – | – | – | – | – |
| Cc1cc(C)cc(Nc2nnc(Cc3ccncc3)c3ccccc23)c1 | 150 nM | 40 nM | 10 nM | 800 nM | 2000 nM | 10 µM | 30 min | – |
| FC(F)(F)c1cc(Nc2nnc(Cc3ccncc3)c3ccccc23)ccc1Cl | 600 nM | – | – | 4000 nM | 2700 nM | 7.6 µM | 120 min | – |
| Clc1ccc(Nc2nnc(Cc3cccnc3)c3ccccc23)cc1 | 9800 nM | > 10000 nM | – | – | – | – | – | – |
| Clc1ccc(Nc2nnc(Cc3ccncc3)c3ccncc23)cc1 | 470 nM | – | – | – | – | – | – | – |

| SMILES | IC50 [1] | IC50 [2] | ED50 [3] | IC50 [4] | IC50 [5] | Cmax [6] | Tmax [7] | Cmax (Mus musculus) |
| --- | --- | --- | --- | --- | --- | --- | --- | --- |
| COc1cccc(Nc2nnc(Cc3ccncc3)c3ccccc23)c1 | – | – | – | 800 nM | 3000 nM | 21 µM | 30 min | – |
| COc1cc(Nc2nnc(Cc3ccncc3)c3ccccc23)ccc1Cl | 260 nM | – | – | 2000 nM | 3500 nM | 8 µM | 30 min | – |
| Clc1ccc(Nc2nnc(Cc3ccncc3)c3cnccc23)cc1 | 230 nM | 610 nM | – | – | – | – | – | – |
| Nc1ccc2c(Cc3ccncc3)nnc(Nc3ccc(Cl)cc3)c2c1 | 650 nM | – | – | – | – | – | – | – |
| Clc1ccc(Nc2nnc(Cc3ccncn3)c3ccccc23)cc1 | 760 nM | 410 nM | – | – | – | – | – | – |
| Clc1ccc(Nc2nnc(Cc3ccncc3)c3c2CCCC3)cc1 | 3600 nM | > 10000 nM | – | – | – | – | – | – |
| Oc1cccc(Nc2nnc(Cc3ccncc3)c3ccccc23)c1 | – | – | – | 4000 nM | 7900 nM | 0.5 µM | 30 min | – |
| Cc1ccc2c(Cc3ccncc3)nnc(Nc3ccc(Cl)cc3)c2c1 | 3000 nM | 4700 nM | – | – | – | – | – | – |
| CC(c1ccncc1)c1nnc(Nc2ccc(Cl)cc2)c2ccccc12 (centres undefined) | 420 nM | 210 nM | – | – | – | – | – | – |
| Clc1ccc(Oc2nnc(Cc3ccncc3)c3ccccc23)cc1 | 60 nM | 1600 nM | – | – | – | – | – | – |
| CN(c1ccc(Cl)cc1)c1nnc(Cc2ccncc2)c2ccccc12 | 2300 nM | 3500 nM | – | – | – | – | – | – |
| c1ccc(-c2ccc(Nc3nnc(Cc4ccncc4)c4ccccc34)cc2)cc1 | – | – | – | 1400 nM | 1400 nM | – | – | – |
| Clc1ccc(Nc2nnc(Cc3ccncc3)c3cccnc23)cc1 | 1700 nM | – | – | – | – | – | – | – |
| Cc1cc(Cc2nnc(Nc3ccc(Cl)cc3)c3ccccc23)cc(C)n1 | > 10000 nM | > 10000 nM | – | – | – | – | – | – |
| Clc1ccc(Nc2nnc(Cc3ccncc3)c3ccccc23)cc1.O=C(O)CCC(=O)O | – | – | – | – | – | 32 µM | 15 min | – |
| CC(C)(C)c1ccc(Nc2nnc(Cc3ccncc3)c3ccccc23)cc1 | – | – | – | 2000 nM | 1000 nM | 25.6 µM | 30 min | – |
